Here are results for 1 compound from ChEMBL document CHEMBL1909604, “A novel potential therapeutic avenue for autism: design, synthesis and pharmacophore generation of SSRIs with dual action” (Bioorg Med Chem Lett, 2011).

Assay [1] deals with 5-hydroxytryptamine receptor 1B (Homo sapiens, UniProt P28222). The experiment in a line: Displacement of [3H]carboxytryptamine from recombinant human 5-HT1B receptor expressed in HEK cells by scintillation counting. It counts as cell-based, HEK293.
Assay [2] has as its target 5-hydroxytryptamine receptor 1D (Homo sapiens, UniProt P28221). Description: Displacement of [3H]GR125743 from recombinant human 5-HT1D receptor expressed in HEK cells by scintillation counting. The class given is cell-based, HEK293.

A word on the Ki: it is a measure of affinity in units of concentration, obtained from inhibition or displacement.

5-hydroxytryptamine receptor 1D, sequence (P28221 whole entry): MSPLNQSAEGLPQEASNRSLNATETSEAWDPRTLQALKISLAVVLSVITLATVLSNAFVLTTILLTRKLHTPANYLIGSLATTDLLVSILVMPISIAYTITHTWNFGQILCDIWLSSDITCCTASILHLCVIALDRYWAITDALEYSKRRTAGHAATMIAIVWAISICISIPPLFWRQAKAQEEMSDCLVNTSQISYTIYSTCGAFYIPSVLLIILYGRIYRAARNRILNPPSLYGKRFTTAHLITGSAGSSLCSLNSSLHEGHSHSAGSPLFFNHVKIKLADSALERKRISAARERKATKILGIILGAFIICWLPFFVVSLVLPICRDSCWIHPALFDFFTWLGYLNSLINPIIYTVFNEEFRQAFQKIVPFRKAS
5-hydroxytryptamine receptor 1B, sequence (P28222 whole entry): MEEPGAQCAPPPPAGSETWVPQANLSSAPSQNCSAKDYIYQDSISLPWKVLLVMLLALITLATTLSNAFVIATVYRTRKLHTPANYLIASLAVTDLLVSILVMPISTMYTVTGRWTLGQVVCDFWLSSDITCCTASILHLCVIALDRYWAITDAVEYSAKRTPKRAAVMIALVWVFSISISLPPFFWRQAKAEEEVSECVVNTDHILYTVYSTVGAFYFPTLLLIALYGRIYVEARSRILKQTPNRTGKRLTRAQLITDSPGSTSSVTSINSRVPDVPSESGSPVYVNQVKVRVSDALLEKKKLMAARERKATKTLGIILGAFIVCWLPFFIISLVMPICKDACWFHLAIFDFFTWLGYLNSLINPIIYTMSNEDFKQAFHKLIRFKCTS

Take `COc1ccc(NC(=O)c2ccc3c(c2)N(C)C(=O)CN3c2ccc(Cl)c(Cl)c2)cc1N1CCN(C)CC1`: the Ki in assay [1] was 120 nM; in assay [2] it was 44 nM.
